Species on record: Rattus norvegicus
Experiment: DrugMatrix - Regimen: Daily Repeat
Format: toxicity, organism-based, Sprague-Dawley
Design: regimen Daily Repeat, gender Male, age 6-8 weeks
Conditions: in vivo, po, route oral GAVAGE, vehicle .5 % CMC; for ABSOLUTE BASOPHIL / ABSOLUTE EOSINOPHIL / ABSOLUTE LYMPHOCYTE / ABSOLUTE MONOCYTE / ABSOLUTE SEGMENTED NEUTROPHIL / BASOPHIL / EOSINOPHIL / ERYTHROCYTE COUNT / HEMATOCRIT / HEMOGLOBIN / LEUKOCYTE COUNT / LYMPHOCYTE / MEAN CORPUSCULAR HEMOGLOBIN / MEAN CORPUSCULAR HEMOGLOBIN CONCENTRATION / MEAN CORPUSCULAR VOLUME / MONOCYTE / NEUTROPHIL / NUCLEATED RED BLOOD CELLS / PLATELET COUNT: tissue Blood; for ALANINE AMINOTRANSFERASE / ALBUMIN / ALKALINE PHOSPHATASE / ASPARTATE AMINOTRANSFERASE / BLOOD UREA NITROGEN / CARBON DIOXIDE / CHLORIDE / CHOLESTEROL / CREATINE PHOSPHOKINASE / CREATININE / GLUCOSE / LACTATE DEHYDROGENASE / LIPASE / PHOSPHORUS / POTASSIUM / SODIUM / TOTAL BILIRUBIN / TOTAL PROTEIN / URIC ACID: tissue Plasma
[1] = 100 mg/kg, 120 h, dose level Low, time 5 day
[2] = 2000 mg/kg, 72 h, dose level High, time 3 day
[3] = 2000 mg/kg, 120 h, dose level High, time 5 day

For CN/C(=N/CCSCc1nc[nH]c1C)NC#N [CIMETIDINE], the “ABSOLUTE BASOPHIL” value [1] was 0 CELLS/uL, the “ABSOLUTE EOSINOPHIL” value [1] was 36.33 CELLS/uL and the “ABSOLUTE LYMPHOCYTE” value [1] was 10440.33 CELLS/uL. The “ABSOLUTE MONOCYTE” value [1] was 206 CELLS/uL, the “ABSOLUTE SEGMENTED NEUTROPHIL” value [1] was 1017.33 CELLS/uL and the BASOPHIL [1] was 0%. The EOSINOPHIL [1] was 0.33%, the “ERYTHROCYTE COUNT” value [1] was 5.58 x10E6/uL and the HEMATOCRIT [1] was 34.03%. For the same molecule, the HEMOGLOBIN [1] was 13.43 G/DL, the “LEUKOCYTE COUNT” value [1] was 11.7 x10E3/uL and the LYMPHOCYTE [1] was 89.33%. For the same molecule, the “MEAN CORPUSCULAR HEMOGLOBIN” value [1] was 24.07 pg, the “MEAN CORPUSCULAR HEMOGLOBIN CONCENTRATION” value [1] was 39.47 G/DL and the “MEAN CORPUSCULAR VOLUME” value [1] was 61 fL. For the same molecule, the MONOCYTE [1] was 1.67%, the NEUTROPHIL [1] was 8.67% and the “NUCLEATED RED BLOOD CELLS” value [1] was 0 /100WBC. For the same molecule, the “PLATELET COUNT” value [1] was 685.33 x10E3/uL, the “ALANINE AMINOTRANSFERASE” value [1] was 61.33 u/L and the ALBUMIN [1] was 4.23 G/DL. The “ALKALINE PHOSPHATASE” value [1] was 391.33 u/L, the “ASPARTATE AMINOTRANSFERASE” value [1] was 101.67 u/L and the “BLOOD UREA NITROGEN” value [1] was 15.33 mg/dL. For the same molecule, the “CARBON DIOXIDE” value [1] was 28 mmol/L, the CHLORIDE [1] was 101 MEQ/L and the CHOLESTEROL [1] was 69 mg/dL. The “CREATINE PHOSPHOKINASE” value [1] was 711.67 u/L, the CREATININE [1] was 0.18 mg/dL and the GLUCOSE [1] was 163 mg/dL. The “LACTATE DEHYDROGENASE” value [1] was 293 u/L, the LIPASE [1] was 10.33 u/L and the PHOSPHORUS [1] was 11.6 mg/dL. The POTASSIUM [1] was 6.16 MEQ/L, the SODIUM [1] was 141.5 MEQ/L and the “TOTAL BILIRUBIN” value [1] was 0.2 mg/dL. The “TOTAL PROTEIN” value [1] was 5.97 G/DL, the “URIC ACID” value [1] was 1.67 mg/dL and the “ABSOLUTE BASOPHIL” value [2] was 0 CELLS/uL. The “ABSOLUTE EOSINOPHIL” value [2] was 50 CELLS/uL, the “ABSOLUTE LYMPHOCYTE” value [2] was 13681 CELLS/uL and the “ABSOLUTE MONOCYTE” value [2] was 50 CELLS/uL. For the same molecule, the “ABSOLUTE SEGMENTED NEUTROPHIL” value [2] was 2252.33 CELLS/uL, the BASOPHIL [2] was 0% and the EOSINOPHIL [2] was 0.33%. For the same molecule, the “ERYTHROCYTE COUNT” value [2] was 5.85 x10E6/uL, the HEMATOCRIT [2] was 36.93% and the HEMOGLOBIN [2] was 14.33 G/DL. The “LEUKOCYTE COUNT” value [2] was 16.03 x10E3/uL, the LYMPHOCYTE [2] was 84.33% and the “MEAN CORPUSCULAR HEMOGLOBIN” value [2] was 24.5 pg. The “MEAN CORPUSCULAR HEMOGLOBIN CONCENTRATION” value [2] was 38.8 G/DL, the “MEAN CORPUSCULAR VOLUME” value [2] was 63.17 fL and the MONOCYTE [2] was 0.33%. The NEUTROPHIL [2] was 15%, the “NUCLEATED RED BLOOD CELLS” value [2] was 0.33 /100WBC and the “PLATELET COUNT” value [2] was 1342.33 x10E3/uL. For the same molecule, the “ALANINE AMINOTRANSFERASE” value [2] was 56 u/L, the ALBUMIN [2] was 4.13 G/DL and the “ALKALINE PHOSPHATASE” value [2] was 392.67 u/L. For the same molecule, the “ASPARTATE AMINOTRANSFERASE” value [2] was 83.33 u/L, the “BLOOD UREA NITROGEN” value [2] was 18 mg/dL and the “CARBON DIOXIDE” value [2] was 32.33 mmol/L. The CHLORIDE [2] was 98.33 MEQ/L, the CHOLESTEROL [2] was 86.67 mg/dL and the “CREATINE PHOSPHOKINASE” value [2] was 295 u/L. For the same molecule, the CREATININE [2] was 0.24 mg/dL, the GLUCOSE [2] was 145.67 mg/dL and the “LACTATE DEHYDROGENASE” value [2] was 334.33 u/L. The LIPASE [2] was 17 u/L, the PHOSPHORUS [2] was 11.87 mg/dL and the POTASSIUM [2] was 7.13 MEQ/L. The SODIUM [2] was 141.97 MEQ/L, the “TOTAL BILIRUBIN” value [2] was 0.17 mg/dL and the “TOTAL PROTEIN” value [2] was 5.67 G/DL. For the same molecule, the “URIC ACID” value [2] was 1.5 mg/dL, the “ABSOLUTE BASOPHIL” value [3] was 0 CELLS/uL and the “ABSOLUTE EOSINOPHIL” value [3] was 104.67 CELLS/uL. The “ABSOLUTE LYMPHOCYTE” value [3] was 19446 CELLS/uL, the “ABSOLUTE MONOCYTE” value [3] was 531.33 CELLS/uL and the “ABSOLUTE SEGMENTED NEUTROPHIL” value [3] was 1118 CELLS/uL. For the same molecule, the BASOPHIL [3] was 0%, the EOSINOPHIL [3] was 0.67% and the “ERYTHROCYTE COUNT” value [3] was 5.6 x10E6/uL. The HEMATOCRIT [3] was 34.37%, the HEMOGLOBIN [3] was 14 G/DL and the “LEUKOCYTE COUNT” value [3] was 21.2 x10E3/uL. The LYMPHOCYTE [3] was 91.33%, the “MEAN CORPUSCULAR HEMOGLOBIN” value [3] was 25.03 pg and the “MEAN CORPUSCULAR HEMOGLOBIN CONCENTRATION” value [3] was 40.77 G/DL. For the same molecule, the “MEAN CORPUSCULAR VOLUME” value [3] was 61.33 fL, the MONOCYTE [3] was 2.33% and the NEUTROPHIL [3] was 5.67%. For the same molecule, the “NUCLEATED RED BLOOD CELLS” value [3] was 0 /100WBC, the “PLATELET COUNT” value [3] was 1356.67 x10E3/uL and the “ALANINE AMINOTRANSFERASE” value [3] was 58 u/L. The ALBUMIN [3] was 4.07 G/DL, the “ALKALINE PHOSPHATASE” value [3] was 363 u/L and the “ASPARTATE AMINOTRANSFERASE” value [3] was 88.33 u/L. The “BLOOD UREA NITROGEN” value [3] was 19.33 mg/dL, the “CARBON DIOXIDE” value [3] was 25 mmol/L and the CHLORIDE [3] was 100.33 MEQ/L. The CHOLESTEROL [3] was 60 mg/dL, the “CREATINE PHOSPHOKINASE” value [3] was 520.33 u/L and the CREATININE [3] was 0.3 mg/dL. For the same molecule, the GLUCOSE [3] was 225 mg/dL, the “LACTATE DEHYDROGENASE” value [3] was 221.33 u/L and the LIPASE [3] was 8 u/L. For the same molecule, the PHOSPHORUS [3] was 13.4 mg/dL, the POTASSIUM [3] was 5.31 MEQ/L and the SODIUM [3] was 143.57 MEQ/L. The “TOTAL BILIRUBIN” value [3] was 0.2 mg/dL, the “TOTAL PROTEIN” value [3] was 5.73 G/DL and the “URIC ACID” value [3] was 1.9 mg/dL.

— ChEMBL document CHEMBL3885881, “DrugMatrix”
